Calls of active or inactive are those of the source.
Columns and labels:
[1] = biological target: T1, Calpain-2 catalytic subunit (Sus scrofa, UniProt P43367); assay: pig calpain II inhibitor potency, dose response, biochemical, fluorogenic peptide substrate (AID 1420); assay type: functional
T1 sequence (P43367 whole entry): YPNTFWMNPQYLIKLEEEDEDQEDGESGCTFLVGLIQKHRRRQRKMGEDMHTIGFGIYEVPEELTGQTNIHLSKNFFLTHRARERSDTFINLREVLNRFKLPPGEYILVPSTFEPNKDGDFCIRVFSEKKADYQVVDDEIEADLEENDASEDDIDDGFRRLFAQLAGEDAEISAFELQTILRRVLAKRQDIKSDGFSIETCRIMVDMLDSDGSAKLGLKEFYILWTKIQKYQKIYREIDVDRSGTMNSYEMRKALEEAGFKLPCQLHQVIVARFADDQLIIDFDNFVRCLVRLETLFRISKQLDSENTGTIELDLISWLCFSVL

[2] = NIH-3T3 fibroblast cytotoxicity, dose response, cytotoxicity control, cell-based, fluorescence, Alamar Blue, secondary assay (AID 2327); assay type: functional;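 further: NIH-3T3 mouse fibroblasts cultured with fluconazole at 8 µg/mL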
[3] = C. albicans growth with fluconazole, confirmation, fluorescence, retest (AID 2467); assay type: functional, cell-based
Paired box protein Pax-8 = Paired box protein Pax-8 (Homo sapiens, UniProt Q06710); assay: inhibitors of PAX8-driven TPO luciferase reporter, dose response, RMG-I cells, cherry-pick (AID 687027); assay type: functional, cell-based;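 further: luciferase reporter driven by Pax8 target thyroperoxidase promoter measured by SteadyGlo luminescence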
Chain of Paired box protein Pax-8 (Q06710 whole entry): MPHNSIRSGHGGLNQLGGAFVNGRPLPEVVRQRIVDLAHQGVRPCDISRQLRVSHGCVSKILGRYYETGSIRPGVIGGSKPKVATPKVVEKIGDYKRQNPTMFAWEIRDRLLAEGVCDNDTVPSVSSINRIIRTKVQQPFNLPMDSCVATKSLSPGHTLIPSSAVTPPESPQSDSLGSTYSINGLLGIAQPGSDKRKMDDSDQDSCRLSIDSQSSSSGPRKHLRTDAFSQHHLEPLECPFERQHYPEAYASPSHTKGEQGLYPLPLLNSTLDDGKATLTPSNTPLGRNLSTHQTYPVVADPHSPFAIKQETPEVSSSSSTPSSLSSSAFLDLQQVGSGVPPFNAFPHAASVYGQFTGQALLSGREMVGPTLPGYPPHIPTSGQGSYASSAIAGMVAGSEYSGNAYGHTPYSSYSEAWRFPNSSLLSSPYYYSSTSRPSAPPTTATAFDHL

Leucine aminopeptidase = biological target: T2, Leucine aminopeptidase (Plasmodium falciparum 3D7, UniProt Q8IL11); assay: P. falciparum M17LAP inhibitors, primary screen, biochemical, fluorogenic H-Leu-NHMec substrate, 1536-well (AID 1619); assay type: functional
T2 sequence (Q8IL11 whole entry): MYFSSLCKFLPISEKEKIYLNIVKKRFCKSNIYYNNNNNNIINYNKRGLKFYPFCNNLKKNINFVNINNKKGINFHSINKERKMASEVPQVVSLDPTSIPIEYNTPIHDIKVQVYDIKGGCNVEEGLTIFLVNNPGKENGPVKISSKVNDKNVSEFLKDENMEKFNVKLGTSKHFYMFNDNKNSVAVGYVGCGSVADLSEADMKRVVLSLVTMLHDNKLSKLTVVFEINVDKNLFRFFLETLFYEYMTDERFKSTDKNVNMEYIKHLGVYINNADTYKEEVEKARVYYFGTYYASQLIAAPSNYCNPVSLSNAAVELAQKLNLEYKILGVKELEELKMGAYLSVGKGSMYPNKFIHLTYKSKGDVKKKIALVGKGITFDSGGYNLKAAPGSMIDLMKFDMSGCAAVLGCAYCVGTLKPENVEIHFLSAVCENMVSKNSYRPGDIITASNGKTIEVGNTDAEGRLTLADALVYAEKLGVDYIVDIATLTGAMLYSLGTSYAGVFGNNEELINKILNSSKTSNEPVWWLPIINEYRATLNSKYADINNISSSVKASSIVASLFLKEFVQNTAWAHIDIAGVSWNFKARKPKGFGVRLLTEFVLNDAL

Protein RecA = biological target: T3, Protein RecA (Mycobacterium tuberculosis, UniProt P9WHJ3); assay: Fluorescence Cell-Free Homogeneous Dose Retest to Identify Inhibitors of RecA-Intein Splicing Activity. [Related pubchem assays (depositor defined):AID2097, AID2223, AID489010, AID492950]; assay type: functional
T3 sequence (P9WHJ3 whole entry): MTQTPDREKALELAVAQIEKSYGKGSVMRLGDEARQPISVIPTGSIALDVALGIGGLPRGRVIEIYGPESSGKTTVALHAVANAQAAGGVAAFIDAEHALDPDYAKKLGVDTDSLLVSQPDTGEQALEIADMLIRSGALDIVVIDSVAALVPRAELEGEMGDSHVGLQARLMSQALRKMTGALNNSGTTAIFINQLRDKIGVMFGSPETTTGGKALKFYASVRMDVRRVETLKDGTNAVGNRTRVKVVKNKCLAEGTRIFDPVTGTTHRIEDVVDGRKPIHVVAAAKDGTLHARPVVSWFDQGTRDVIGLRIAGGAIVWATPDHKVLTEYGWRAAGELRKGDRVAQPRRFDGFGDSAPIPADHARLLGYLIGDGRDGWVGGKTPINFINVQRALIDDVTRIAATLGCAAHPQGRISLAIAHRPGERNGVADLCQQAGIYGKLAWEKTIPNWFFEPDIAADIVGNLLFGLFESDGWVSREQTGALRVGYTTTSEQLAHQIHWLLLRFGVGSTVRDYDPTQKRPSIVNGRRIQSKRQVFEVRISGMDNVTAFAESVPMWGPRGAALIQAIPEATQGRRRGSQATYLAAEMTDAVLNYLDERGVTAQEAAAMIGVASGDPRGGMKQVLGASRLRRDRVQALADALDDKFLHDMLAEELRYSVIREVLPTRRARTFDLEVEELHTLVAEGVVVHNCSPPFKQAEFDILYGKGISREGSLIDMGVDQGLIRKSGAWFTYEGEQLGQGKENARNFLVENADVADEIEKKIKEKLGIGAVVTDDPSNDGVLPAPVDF

[4] = biological target: T4, Replicative DNA helicase DnaB (Mycobacterium tuberculosis, UniProt P9WMR3); assay: DnaB intein splicing inhibitors, dose response, biochemical, cell-free fluorescence (AID 449749); assay type: functional
T4 sequence (P9WMR3 whole entry): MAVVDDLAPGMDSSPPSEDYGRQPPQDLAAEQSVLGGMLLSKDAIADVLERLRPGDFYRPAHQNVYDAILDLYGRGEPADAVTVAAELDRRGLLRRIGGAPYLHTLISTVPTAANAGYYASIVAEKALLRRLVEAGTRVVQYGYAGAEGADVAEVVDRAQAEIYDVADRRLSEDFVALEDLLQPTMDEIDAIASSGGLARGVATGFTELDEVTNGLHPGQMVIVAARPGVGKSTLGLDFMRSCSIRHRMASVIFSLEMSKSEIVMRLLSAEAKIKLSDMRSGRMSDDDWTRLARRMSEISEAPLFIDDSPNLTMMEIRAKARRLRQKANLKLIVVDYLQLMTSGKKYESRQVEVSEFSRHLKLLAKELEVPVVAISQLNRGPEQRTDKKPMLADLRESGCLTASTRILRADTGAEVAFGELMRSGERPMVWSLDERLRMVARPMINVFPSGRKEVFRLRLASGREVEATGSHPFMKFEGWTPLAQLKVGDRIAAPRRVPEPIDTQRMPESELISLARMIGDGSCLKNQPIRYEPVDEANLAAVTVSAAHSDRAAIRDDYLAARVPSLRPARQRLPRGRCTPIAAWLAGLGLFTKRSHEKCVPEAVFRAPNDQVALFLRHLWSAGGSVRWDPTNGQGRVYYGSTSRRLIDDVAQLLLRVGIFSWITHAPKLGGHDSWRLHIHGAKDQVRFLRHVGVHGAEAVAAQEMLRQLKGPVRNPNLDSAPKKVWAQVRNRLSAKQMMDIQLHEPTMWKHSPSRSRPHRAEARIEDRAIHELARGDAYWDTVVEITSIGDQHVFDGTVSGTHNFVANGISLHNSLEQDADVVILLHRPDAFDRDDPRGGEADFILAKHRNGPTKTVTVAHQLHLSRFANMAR

| Structure (SMILES) | IC50 [1] | EC50 [2] | EC50 [3] | IC50 (Leucine aminopeptidase) | further results |
| --- | --- | --- | --- | --- | --- |
| O=C(CCn1c(=O)[nH]c2ccsc2c1=O)NCc1ccc(F)cc1 | < 0.4 µM (not active) |  |  |  |  |
| OCCN1CCN(C(S)=NC2CCCC2)CC1 |  | 50.8 µM (active) | 5.25 µM (active) |  |  |
| O=C(OCC(=O)N1CCN(C(=O)c2ccco2)CC1)c1cccc(S(=O)(=O)N2CCc3ccccc32)c1 |  |  |  |  | AC50 (Paired box protein Pax-8): 1.38 µM (active) |
| O=C1C2CCCCC2C(=O)N1c1ccc(NC2CCCCC2)c([N+](=O)[O-])c1 (stereo not given) | 4.65 µM (active) |  |  |  |  |
| Cc1cc(NS(=O)(=O)c2ccc(NC(=O)CN3C(=O)c4ccccc4C3=O)cc2)nc(C)n1 |  |  |  | 64.4 µM (active) |  |
| CCCC1C(c2ccco2)NC(c2ccco2)CC1(C)O (stereo not given) |  | > 150 µM (inactive) | 8.34 µM (active) |  |  |
| O=C1c2ccccc2NC(c2c[nH]nc2-c2ccc(Cl)cc2)N1O (stereo not given) |  | > 160 µM (inactive) | > 38 µM (not active) |  |  |
| CCOCCCNC(=O)C1CCC(CNS(=O)(=O)c2ccc(Cl)cc2)CC1 (stereo not given) | > 50 µM (not active) |  |  |  |  |
| C/C(=C\c1ccco1)C1C(C#N)=C(N)Oc2[nH]nc(-c3ccccc3)c21 (stereo not given) |  |  |  | 83.7 µM (active) | EC50 (Protein RecA): 3.12 µM (active); AC50 [4]: 6.38 µM (active) |
| COc1cccc(CNc2nn[nH]n2)c1OC |  |  |  | 67.2 µM (active) |  |

From ChEMBL document CHEMBL1201862, “PubChem BioAssay data set” (2004)
